# Experimental data: patent US7879865B2, “Treatment of cancer of the brain using histone deacetylase inhibitors” (Sloan-Kettering Institute for Cancer Research, priority 2001, dated 2011)
# What was measured:
# [1] = test system: histone deacetylase enzyme; conditions: cited from earlier work
# tumor growth = conditions: cited from earlier work
# [2] = test system: histone deacetylase (HDAC); assay: Acetylated histone levels in mouse tissues after IP injection (Western blot of isolated histones); assay type: in vivo; conditions: mice, three injections at 1 hour intervals, SAHA 100 mg/kg, pyroxamide 200 mg/kg
# Experimental: FIG. […]
# Each mouse was administered three injections at the indicated dose at 1 hour intervals. After the final IP injection tissues (brain, spleen or liver) were isolated at the times indicated. Histones were isolated from tissues essentially as described by Yoshida et al., (1990) J. Biol. Chem. 265:17174-17179. Equal amounts of histones (1 μg) were electrophoresed on 15% SDS-polyacrylamide gels and transferred to Hybond-P filters (Amersham). Filters were blocked with 3% milk and probed with a rabbit purified polyclonal anti-acetylated histone H4 antibody (αAc-H4) and anti-acetylated histone H3 antibody (αAc-H3) (Upstate Biotechnology, Inc.). Levels of acetylated histone were visualized using a horseradish peroxidase-conjugated goat anti-rabbit antibody (1:5000) and the SuperSignal chemiluminescent substrate (Pierce). As a loading control for the histone proteins, parallel gels were run and stained with Coomassie Blue (CB).
# [3] = test system: transformed cells in culture; conditions: cited from earlier work
crossing of the blood brain barrier [2],Structure (SMILES),binding to histone deacetylase enzyme [1],toxicity to the animal (tumor growth; animals in tumor growth studies),accumulation of acetylated histones in the tumor (tumor growth; tumor),"cell cycle arrest, differentiation and/or apoptosis [3]","inhibition of HDAC activity / accumulation of acetylated histones in the brain ([2]; brain histones, anti-AcH3/AcH4 Western blot)"
can cross the blood brain barrier,"O=C(CCCCCCC(=O)Nc1ccccc1)NO [SAHA, suberoylanilide hydroxamic acid]",bind directly in the catalytic pocket of the histone deacetylase enzyme,no toxicity to the animal,associated with an accumulation of acetylated histones in the tumor,"induces cell cycle arrest, differentiation and/or apoptosis of transformed cells in culture",
can cross the blood brain barrier,O=C(CCCCCCC(=O)Nc1cccnc1)NO [pyroxamide],,,,,significantly inhibit HDAC activity causing the accumulation of acetylated histones in the brain
